Reference: PubChem BioAssay AID328 (DTP/NCI, 2004)
Values joined by “and” are separate entries in the source; they are usually repeats but may differ in a detail not shown here. Equal entries are not always repeated. Toxic doses and inconclusive results are not listed.

Test system: BDF1 mice, P388 leukemia ip, median survival T/C
Assay: NCI In Vivo Anticancer Drug Screen. Data for tumor model P388 Leukemia (intraperitoneal) in B6D2F1 (BDF1) mice
Details: endpoint: median survival time, higher = longer survival
Method in brief: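 Mice carrying the transplantable tumour receive compound or vehicle. Survival is followed in each arm, and the treated measure is divided by the vehicle measure.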

[1] = dose: 100.0 mg/kg/injection, schedule: Q04DX003 (ip), vehicle: saline with Tween-80
[2] = dose: 200.0 mg/kg/injection, schedule: Q04DX003 (ip), vehicle: saline with Tween-80
[3] = dose: 400.0 mg/kg/injection, schedule: Q04DX003 (ip), vehicle: saline with Tween-80
[4] = dose: 100.0 mg/kg/injection, schedule: Q04DX003 (ip), vehicle: Klucel (hydroxypropylcellulose) (HPC)
[5] = dose: 200.0 mg/kg/injection, schedule: Q04DX003 (ip), vehicle: Klucel (hydroxypropylcellulose) (HPC)
[6] = dose: 400.0 mg/kg/injection, schedule: Q04DX003 (ip), vehicle: Klucel (hydroxypropylcellulose) (HPC)
[7] = dose: 50.0 mg/kg/injection, schedule: Q01DX009 (ip), vehicle: saline with Tween-80
[8] = dose: 100.0 mg/kg/injection, schedule: Q01DX009 (ip), vehicle: saline with Tween-80
[9] = dose: 200.0 mg/kg/injection, schedule: Q01DX009 (ip), vehicle: saline with Tween-80
[10] = dose: 50.0 mg/kg/injection, schedule: Q04DX003 (ip), vehicle: saline with Tween-80
[11] = dose: 12.5 mg/kg/injection, schedule: Q01DX009 (ip), vehicle: saline with Tween-80
[12] = dose: 25.0 mg/kg/injection, schedule: Q01DX009 (ip), vehicle: saline with Tween-80

Compound: Oc1ccccc1C=NCCN1CC1.Oc1ccccc1C=NCCN1CC1.[Cu]
- T/C (dose: 6.25 mg/kg/injection, schedule: Q01DX001 (ip), vehicle: saline sonified): 104 % of control
- T/C (dose: 8.25 mg/kg/injection, schedule: Q01DX001 (ip), vehicle: saline): 104 % of control
- T/C (dose: 12.5 mg/kg/injection, schedule: Q01DX001 (ip), vehicle: saline): 112 % of control
- T/C (dose: 18.75 mg/kg/injection, schedule: Q01DX001 (ip), vehicle: saline): 124 % of control
- T/C (dose: 25.0 mg/kg/injection, schedule: Q01DX001 (ip), vehicle: saline sonified): 118 % of control

Compound: CS(=O)(=O)CCN(N=O)C(=N)N[N+](=O)[O-]
- T/C (dose: 19.0 mg/kg/injection, schedule: Q04DX003 (ip), vehicle: saline with Tween-80): 113 % of control
- T/C (dose: 150.0 mg/kg/injection, schedule: Q04DX003 (ip), vehicle: saline with Tween-80): 150 % of control

Compound: O=[N+]([O-])c1ccc2nc3c(nc2c1)-c1cccc2cccc-3c12
- T/C [1]: 91 % of control
- T/C [2]: 100 % of control
- T/C [3]: 91 % of control

Compound: Fc1ccc(P(c2ccc(F)cc2)c2ccc(F)cc2)cc1
- T/C (dose: 3.12 mg/kg/injection, schedule: Q01DX009 (ip), vehicle: Klucel (hydroxypropylcellulose) (HPC)): 92 % of control
- T/C (dose: 6.25 mg/kg/injection, schedule: Q01DX009 (ip), vehicle: Klucel (hydroxypropylcellulose) (HPC)): 92 % of control
- T/C (dose: 12.5 mg/kg/injection, schedule: Q01DX009 (ip), vehicle: Klucel (hydroxypropylcellulose) (HPC)): 107 % of control
- T/C (dose: 25.0 mg/kg/injection, schedule: Q01DX009 (ip), vehicle: Klucel (hydroxypropylcellulose) (HPC)): 100 % of control
- T/C (dose: 50.0 mg/kg/injection, schedule: Q01DX009 (ip), vehicle: Klucel (hydroxypropylcellulose) (HPC)): 96 % of control
- T/C (dose: 50.0 mg/kg/injection, schedule: Q04DX003 (ip), vehicle: Klucel (hydroxypropylcellulose) (HPC)): 100 % of control
- T/C [4]: 87 % of control
- T/C [5]: 95 % of control

Compound: CC1(C)N=C(N)N=C(N)N1c1ccc(CCc2ccccc2)c(Cl)c1
- T/C (dose: 4.0 mg/kg/injection, schedule: Q01DX009 (ip), vehicle: saline with Tween-80): 122 % of control

Compound: COc1ccc2c3c1OC1C(Oc4nnnn4-c4ccccc4)C=CC4C(C2)N(C)CCC341 (stereo unspecified)
- T/C (dose: 12.5 mg/kg/injection, schedule: Q04DX003 (ip), vehicle: saline): 105 % of control
- T/C (dose: 25.0 mg/kg/injection, schedule: Q04DX003 (ip), vehicle: saline): 113 % of control
- T/C (dose: 50.0 mg/kg/injection, schedule: Q04DX003 (ip), vehicle: saline): 99 % of control
- T/C (dose: 100.0 mg/kg/injection, schedule: Q04DX003 (ip), vehicle: saline): 103 % of control
- T/C (dose: 200.0 mg/kg/injection, schedule: Q04DX003 (ip), vehicle: saline): 103 % of control
- T/C (dose: 400.0 mg/kg/injection, schedule: Q04DX003 (ip), vehicle: saline): 99 % of control

Compound: O=[N+]([O-])c1ccc2c3c(cccc13)-c1ccccc1-2
- T/C (dose: 100.0 mg/kg/injection, schedule: Q01DX009 (ip), vehicle: Klucel (hydroxypropylcellulose) (HPC)): 110 % of control
- T/C [4]: 90 % of control
- T/C (dose: 200.0 mg/kg/injection, schedule: Q01DX009 (ip), vehicle: Klucel (hydroxypropylcellulose) (HPC)): 105 % of control
- T/C [5]: 95 % of control
- T/C (dose: 400.0 mg/kg/injection, schedule: Q01DX009 (ip), vehicle: Klucel (hydroxypropylcellulose) (HPC)): 100 % of control
- T/C [6]: 100 % of control

Compound: C/C=C/C(=O)OC1CC(=O)N(C)c2cc(cc(OC)c2Cl)C/C(C)=C/C=CC(OC)C2(O)CC(OC(=O)N2)C(C)C2OC12C (stereo unspecified)
- T/C (dose: 0.8 micrograms/kg/injection, schedule: Q01DX009 (ip), vehicle: saline + alcohol): 150 % of control
- T/C (dose: 1.5 micrograms/kg/injection, schedule: Q01DX009 (ip), vehicle: saline + alcohol): 150 % of control
- T/C (dose: 3.1 micrograms/kg/injection, schedule: Q01DX009 (ip), vehicle: saline + alcohol): 150 % of control
- T/C (dose: 6.2 micrograms/kg/injection, schedule: Q01DX009 (ip), vehicle: saline + alcohol): 160 % of control
- T/C (dose: 12.5 micrograms/kg/injection, schedule: Q01DX009 (ip), vehicle: saline + alcohol): 170 % of control
- T/C (dose: 25.0 micrograms/kg/injection, schedule: Q01DX009 (ip), vehicle: saline + alcohol): 173 % of control
- T/C (dose: 50.0 micrograms/kg/injection, schedule: Q01DX009 (ip), vehicle: saline + alcohol): 210 % of control
- T/C (dose: 100.0 micrograms/kg/injection, schedule: Q01DX009 (ip), vehicle: saline + alcohol): 210 % of control
- T/C (dose: 200.0 micrograms/kg/injection, schedule: Q01DX009 (ip), vehicle: saline + alcohol): 210 % of control

Compound: CSC(N)=Nc1ccc(C(=O)O)cc1
- T/C [1]: 100 % of control
- T/C [2]: 104 % of control
- T/C [3]: 95 % of control

Compound: COc1cc(C)ccc1C(=O)c1ccc(C)cc1OC
- T/C [4]: 90 % of control
- T/C [5]: 90 % of control
- T/C [6]: 109 % of control

Compound: Cc1cc2[nH]c(=O)c(=O)[nH]c2cc1C
- T/C (dose: 10.0 mg/kg/injection, schedule: Q01DX009 (ip), vehicle: Klucel (hydroxypropylcellulose) (HPC)): 109 % of control
- T/C (dose: 20.0 mg/kg/injection, schedule: Q01DX009 (ip), vehicle: Klucel (hydroxypropylcellulose) (HPC)): 109 % of control
- T/C (dose: 40.0 mg/kg/injection, schedule: Q01DX009 (ip), vehicle: Klucel (hydroxypropylcellulose) (HPC)): 100 % of control
- T/C (dose: 75.0 mg/kg/injection, schedule: Q01DX009 (ip), vehicle: Klucel (hydroxypropylcellulose) (HPC)): 86 % of control

Compound: Nc1nc2nc(N=Nc3ccccc3)[nH]c2c(=O)[nH]1
- T/C (dose: 50.0 mg/kg/injection, schedule: Q01DX005 (ip), vehicle: saline with Tween-80): 100 % of control
- T/C (dose: 100.0 mg/kg/injection, schedule: Q01DX005 (ip), vehicle: saline with Tween-80): 91 % of control
- T/C (dose: 200.0 mg/kg/injection, schedule: Q01DX005 (ip), vehicle: saline with Tween-80): 110 % of control

Compound: CCCCOCN(COCCCC)c1cccc(Cl)c1
- T/C [7]: 100 % of control
- T/C [8]: 106 % of control
- T/C [9]: 117 % of control

Compound: NC(=O)OCC#CCCl
- T/C [7]: 100 % of control
- T/C [8]: 98 % of control
- T/C [9]: 96 % of control

Compound: Cc1ccc(NS(=O)(=O)c2ccc([N+](=O)[O-])cc2)c(C)c1
- T/C [1]: 100 % of control
- T/C [2]: 104 % of control
- T/C [3]: 104 % of control

Compound: CN(C)c1ccc(C2N(Cc3ccccc3)CCC3CCCCN32)cc1 (stereo unspecified)
- T/C [7]: 99 % of control
- T/C [8]: 92 % of control

Compound: O=C(O)/C(Br)=C/c1ccccc1
- T/C [10]: 100 % of control
- T/C [1]: 109 % of control
- T/C [2]: 95 % of control

Compound: O=c1[nH]ncc2[nH]cnc12
- T/C (dose: 6.25 mg/kg/injection, schedule: Q01DX009 (ip), vehicle: saline with Tween-80): 98 % of control
- T/C [11]: 107 % of control
- T/C [12]: 91 % of control
- T/C [7]: 104 % of control

Compound: CCCSCCCCSCCC
- T/C [1]: 109 % of control
- T/C [2]: 113 % of control
- T/C [3]: 109 % of control

Compound: Cc1ccc(-c2cc(C)n(C)[n+]2C)cc1
- T/C [11]: 108 % of control
- T/C [12]: 110 % of control

Compound: O=C(NCCCCOc1ccc([N+](=O)[O-])cc1Cl)c1ccc(S(=O)(=O)F)cc1
- T/C [10]: 103 % of control
- T/C [1]: 96 % of control and 112 % of control
- T/C [2]: 106 % of control
- T/C [3]: 90 % of control and 103 % of control

Compound: COC(=O)c1c(Cl)c(Cl)c(Cl)c(Cl)c1C(=O)O
- T/C [7]: 110 % of control
